Reference: paper PMC9057582, “HIF inhibitor 32-134D eradicates murine hepatocellular carcinoma in combination with anti-PD1 therapy” (The Journal of Clinical Investigation, 2022)

Tested on: Hep3B tumor xenograft
Experiment: Hep3B tumor xenograft growth in nude mice
Type: in vivo, nude (nu/nu) mice
Method: Hep3B cells were injected subcutaneously into nude (nu/nu) mice and when tumors reached a volume of 150 mm^3 (designated day 1), the mice were treated with vehicle or 32-134D by daily intraperitoneal injection. […] Treatment with 32-134D for 17 days had no effect on mouse appearance, behavior, or body weight (Supplemental Figure 4B). We treated additional mice with 32-134D at a dose of 40 mg/kg versus vehicle and confirmed inhibition of tumor growth without effects on body weight (Supplemental Figure 5, A–C).
Figure 2 Effect of 32-134D on Hep3B tumor xenograft growth and vascularization. (A) Female nude mice received a subcutaneous injection of […] Hep3B cells. When tumors reached a volume of 150 mm^3 (designated treatment day 1), the mice were randomized to receive a daily intraperitoneal injection of 32-134D at a dose of 0 (blue), 20 (black), 40 (red), or 80 (green) mg/kg. Data are presented as mean tumor volume (± SEM; n = 4 each). **P < 0.01, ***P < 0.001 (ANOVA with Bonferroni’s post hoc test). (B) Gross pathology of tumors harvested from vehicle-treated (top panel) and 32-134D–treated (bottom panel) mice. (C) Nuclear extracts prepared from tumors were assayed by immunoblotting using antibodies against the indicated proteins. (D) Total RNA was isolated from tumor tissue and analyzed by RT-qPCR using primers specific for the indicated mRNAs and results (mean ± SEM, n = 4) were normalized to the mean value for tumors from vehicle-treated mice. (E) ELISA for the indicated proteins was performed using aliquots of tumor lysates (mean ± SEM; n = 3–4 tumors each). *P < 0.05 (Mann-Whitney test). (F) Formalin-fixed and paraffin-embedded tumor sections were analyzed by immunohistochemistry using an antibody against CD31 to identify vascular endothelial cells. Scale bar: 100 μm. The total CD31^+ vessel area per field was quantified using ImageJ (mean ± SEM; n = 4 tumors with 5 sections per tumor). *P < 0.05 (Student’s t test).
Female nude mice (NCI Athymic NCr-nu/nu) and male C57L mice were purchased from Charles River and The Jackson Laboratory, respectively. Hep3B (8 × 10^6) and Hepa1-6 (1 × 10^7) cells were resuspended in PBS and Matrigel (1:1, vol/vol) and implanted subcutaneously in 6- to 8-week-old mice, and tumor volume was calculated as V = abc × 0.52. For Hep3B tumor studies, once tumors reached 100 to 150 mm^3, mice were randomized into groups to receive daily intraperitoneal injection of either 32-134D or vehicle only (20% PEG-400, 10% Cremophor EL, 10% ethanol in PBS). For Hepa1-6 tumors, mice were randomized to receive treatment once tumors became palpable (tumor eradication experiment) or reached a volume of 200 mm^3 (harvesting of tumors for flow cytometry and analysis of RNA and protein expression). Tumors were harvested 4 hours after the last treatment (see Supplemental Table 6 for reagent sources).
Supplemental Figure 4. […]
Female nude mice received a subcutaneous injection of 8 x 10^6 Hep3B cells. […] (A) Tumor volumes were determined every other day. […] (B) Body weights of tumor-bearing mice were measured every other data and are presented as mean + SEM (n = 3-4 per group). […]
Supplemental Figure 5. […] (A-D) Tumor bearing mice were treated with daily intraperitoneal injection of vehicle (black) or 32-134D (red; 40 mg/kg) and individual (A) and mean (B) tumor volumes as well as body weight (C) were determined every other day and mean tumor weights (D) were determined on day 17 (mean + SEM, n =4). *P < 0.05 by ANOVA. […]

Structure (SMILES): Brc1ccc2c(-c3csc(-c4c[nH]c5c(Br)cccc45)n3)c[nH]c2c1 [Compound 32-134D]
- tumor xenograft growth (20 mg/kg daily intraperitoneal, P < 0.01 vs vehicle): partial growth inhibition
- tumor xenograft growth (40 mg/kg daily intraperitoneal, P < 0.001 vs vehicle): maximal growth inhibition
- tumor mass at harvest (40 mg/kg, day 17, P < 0.05): significantly decreased
- tumor xenograft growth (80 mg/kg daily intraperitoneal, P < 0.001 vs vehicle): maximal growth inhibition
- mouse appearance, behavior, or body weight (treatment for 17 days): no effect
